The source made the active and inactive calls. The rule behind the calls is not given here.
Columns and labels:
[1] = system: Thoracic aorta; assay: Antiangiogenic activity in Fischer 344 rat thoracic aorta assessed as field of view occupancy at 10 microg/ml after 5 days light microscopic analysis(reference value: 86 %); format: functional
[2] = system: HUVEC; assay: Antiangiogenic activity in human HUVEC cells assessed as angiogenesis rate at 10 uM after 5 hrs by endothelial tube formation assay relative to control; format: functional
[3] = Cytotoxicity against mouse SVEC4-10 cells assessed as cell viability after 24 hrs by MTS assay; format: cell-based; settings: SVEC4-10, 24 h
[4] = system: Thoracic aorta; assay: Antiangiogenic activity in Fischer 344 rat thoracic aorta assessed as field of view occupancy at 1 microg/ml after 5 days by light microscopic analysis (reference value: 86 %); format: functional
[5] = system: HUVEC; assay: Antiangiogenic activity in human HUVEC cells assessed as angiogenesis rate at 1 uM after 5 hrs by endothelial tube formation assay relative to control; format: functional

| SMILES | Activity [2] | other results |
| --- | --- | --- |
| Cc1cc(C)n2c1C=C(c1ccccc1)C2=O | 68.4% | Activity [1]: Active |
| Cc1cc(C)n2c1C=C(c1ccc(Br)cc1)C2=O | inactive |  |
| Cc1cc(C)n2c1C=C(c1ccc(Cl)cc1)C2=O | inactive |  |
| Cc1ccc(C2=Cc3c(C)cc(C)n3C2=O)cc1 | inactive |  |
| Cc1cc(C)n2c1C=C(c1ccc([N+](=O)[O-])cc1)C2=O | inactive |  |
| Cc1cc(C)n2c1C=C(c1ccc(F)cc1)C2=O | inactive |  |
| COc1ccccc1C1=Cc2c(C)cc(C)n2C1=O | Active |  |
| CCN(CC)CCNC(=O)c1c(C)[nH]c(/C=C2\C(=O)Nc3ccc(F)cc32)c1C [SUNITINIB] | Active | IC50 [3]: 8 µM |
| Cc1cc(C)n2c1C=C(c1ccccc1F)C2=O | Active |  |
| Cc1cc(C)n2c1C=C(c1cccc([N+](=O)[O-])c1)C2=O | inactive |  |
| Cc1cc(C)n2c1C=C(c1cccc(Br)c1)C2=O | inactive |  |
| Cc1cccc(C2=Cc3c(C)cc(C)n3C2=O)c1 | inactive |  |
| Cc1cc(C)n2c1C=C(c1cccc(F)c1)C2=O | inactive |  |
| Cc1cc(C)n2c1C=C(c1ccccc1Cl)C2=O | inactive |  |
| Cc1cc(C)n2c1C=C(c1ccccc1[N+](=O)[O-])C2=O | 29.7% | Activity [4]: inactive; Activity [1]: 4%; Activity [5]: 74%; IC50 [3]: 32 µM |
| Cc1cc(C)c(/C=C2\C(=O)Nc3ccccc32)[nH]1 [SEMAXANIB] |  | Activity [4]: 61%; Activity [1]: 10% |
| Cc1cc(C)n2c1C=C(c1ccccc1Br)C2=O | Active |  |
| Cc1ccccc1C1=Cc2c(C)cc(C)n2C1=O | Active |  |
| COc1cccc(C2=Cc3c(C)cc(C)n3C2=O)c1 | inactive |  |
| Cc1cc(C)n2c1C=C(c1cccc(Cl)c1)C2=O | inactive |  |

From ChEMBL document CHEMBL3784987, “Synthesis and preliminary evaluation of 5,7-dimethyl-2-aryl-3H-pyrrolizin-3-ones as angiogenesis inhibitors” (Bioorg Med Chem Lett, 2016)
